Earlier results as cited in patent publication US20070212498A1, “Optical film, antireflection film, polarizing plate, display apparatus and method for manufacturing optical film” (FUJIFILM Corporation, priority 2006, published 2007).

Details: pKa of the conjugate acid, values in an aqueous solution (Kagaku Binran Kiso Hen)

## CCC1CNCCO1 (centres unmarked) [b-13, 2-Ethyl morpholine]
  pKa: 7.7

## CC1CNCCO1 (centres unmarked) [b-14, 2-Methyl morpholine]
  pKa: 7.8
